Legend:
Assay in all cases: microbe, parasite or virus in culture
Influenza A virus [1] = conditions: MDCK, 72 h
Influenza A virus [2] = conditions: MDCK, 72 h; remark: listed apart in the source
Influenza B virus [3] = conditions: Ned/537/05, MDCK, 72 h
Influenza B virus [4] = conditions: Ned/537/05, MDCK, 72 h; remark: listed apart in the source

| SMILES | EC50 (Influenza A virus [1]) [µM] | EC50 (Influenza A virus [2]) [µM] | EC50 (Influenza B virus [3]) [µM] | EC50 (Influenza B virus [4]) [µM] |
| --- | --- | --- | --- | --- |
| CCCCCCCCCCCCCCC(=O)Oc1ccc(COP(=O)(OCc2ccc(OC(=O)CCCC)cc2)OP(=O)(O)OP(=O)(O)OC[C@H]2O[C@@H](n3ccnc(C(N)=O)c3=O)[C@H](O)[C@@H]2O)cc1.CCN(CC)CC.CCN(CC)CC (stereo partly specified) | 5.6 | 5.4 | 2.6 | 1.5 |
| CCCCCCCCCCCCCCC(=O)Oc1ccc(COP(=O)(OCc2ccc(OC(=O)CCCC)cc2)OP(=O)(O)OC[C@H]2O[C@@H](n3ccnc(C(N)=O)c3=O)[C@H](O)[C@@H]2O)cc1.CCN(CC)CC (stereo partly specified) | 1.5 | 1.4 | 0.66 | 0.53 |
| NC(=O)c1ncn([C@@H]2O[C@H](CO)[C@@H](O)[C@H]2O)n1 [RIBAVIRIN] | 5 | 5.8 | – | 1.5 |
| NC(=O)c1nccn([C@@H]2O[C@H](CO)[C@@H](O)[C@H]2O)c1=O | 53 | 51 | 20 | 19 |
| NC(=O)c1nccnc1O | > 250 | > 250 | > 250 | > 250 |
| NC(=O)c1nc(Br)cn([C@@H]2O[C@H](CO)[C@@H](O)[C@H]2O)c1=O | > 250 | > 250 | > 250 | 170 |
| CCCCCCCCCC(=O)Oc1ccc(COP(=O)(OCc2ccc(OC(=O)CCCCCCCCC)cc2)OP(=O)(O)OP(=O)(O)OC[C@H]2O[C@@H](n3ccnc(C(N)=O)c3=O)[C@H](O)[C@@H]2O)cc1.CCN(CC)CC.CCN(CC)CC | 2.6 | 4.5 | 1.9 | 1 |
| NC(=O)c1nc(Br)cnc1O | > 250 | > 250 | > 250 | 63 |
| Cc1cccc2c1OP(=O)(OC[C@H]1O[C@@H](n3ccnc(C(N)=O)c3=O)[C@H](O)[C@@H]1O)OC2 (stereo partly specified) | 256 | 368 | 200 | 106 |
| NC(=O)c1nc(F)cnc1O | > 250 | > 250 | > 250 | > 250 |
| CCCCCCCCCCCCCCC(=O)Oc1ccc(COP(=O)(OCc2ccc(OC(=O)CCCC)cc2)OP(=O)(O)OC[C@H]2O[C@@H](n3cc(F)nc(C(N)=O)c3=O)[C@H](O)[C@@H]2O)cc1.CCN(CC)CC (stereo partly specified) | 6.6 | 8.8 | 3.4 | 2.8 |
| CC(=O)O[C@@H]1[C@H](OC(C)=O)[C@@H](COP2(=O)OCc3cccc(C)c3O2)O[C@H]1n1ccnc(C(N)=O)c1=O (stereo partly specified) | > 400 | > 400 | > 400 | 177 |
| CCCCCCCCCC(=O)Oc1ccc(COP(=O)(OCc2ccc(OC(=O)CCCCCCCCC)cc2)OP(=O)(O)OC[C@H]2O[C@@H](n3ccnc(C(N)=O)c3=O)[C@H](O)[C@@H]2O)cc1.CCN(CC)CC | 1.3 | 0.97 | 0.55 | 0.39 |

— ChEMBL document CHEMBL4130627, “Prodrugs of the Phosphoribosylated Forms of Hydroxypyrazinecarboxamide Pseudobase T-705 and Its De-Fluoro Analogue T-1105 as Potent Influenza Virus Inhibitors” (J Med Chem, 2018)
